ChEMBL document CHEMBL5608212, “N-acylbenzimidazoles as selective Acylators of the catalytic cystein of the coronavirus 3CL protease” (Eur J Med Chem, 2024)
“And” between values parts separate entries of the source, which are not always exact repeats. Equal entries are not always repeated. The source made the active and inactive calls. The rule behind the calls is not given here.

Experiments:
[1] = molecular target: Replicase polyprotein 1ab (Severe acute respiratory syndrome coronavirus 2) (UniProt P0DTD1); experiment: Binding affinity to SARS-CoV-2 3CLpro assessed as change in melting temperature at 40 uM measured after 30 mins by SYPRO Orange staining based thermal shift assay
[2] = molecular target: T1, Replicase polyprotein 1ab (Severe acute respiratory syndrome coronavirus 2, UniProt P0DTD1); experiment: Inhibition of SARS-CoV-2 3CLpro using Dabcyl-KTSAVLQSGFRKM-Glu(Edans) as substrate preincubated for 1 hrs in presence of 2 mM GSH followed by substrate addition and measured after 30 mins by FRET assay; conditions: for IC50: read-out: IC50
[3] = Inhibition of C-terminal 6-His tagged recombinant SARS-CoV 3CLpro (Ser1 to Gln306 residues) extracted from Escherichia coli using Dabcyl-KTSAVLQSGFRKM-Glu(Edans) as substrate preincubated 1 hr in presence of 2 mM GSH followed by substrate addition and measured after 30 mins by FRET assay; parameters: species or system Severe acute respiratory syndrome-related coronavirus
[4] = molecular target: Replicase polyprotein 1ab (Human coronavirus 229E, UniProt P0C6X1); experiment: Inhibition of hCoV-229E 3CLpro using Dabcyl-KTSAVLQSGFRKM-Glu(Edans) as substrate preincubated 1 hr in presence of 2 mM GSH followed by substrate addition and measured after 30 mins by FRET assay
[5] = Inhibition of MERS-CoV 3CLpro using Dabcyl-KTSAVLQSGFRKM-Glu(Edans) as substrate preincubated 1 hr in presence of 2 mM GSH followed by substrate addition and measured after 30 mins by FRET assay; parameters: species or system Middle East respiratory syndrome-related coronavirus
[6] = molecular target: T2, Calpain-1 catalytic subunit (Homo sapiens, UniProt P07384); experiment: Inhibition of human calpain 1 using (DABCYL)-TPLKSPPPSPR-(EDANS) as substrate incubated for 30 mins in presence of calcium ions and GSH and measured after 30 mins by fluorescence based assay
T2 sequence (P07384 whole entry): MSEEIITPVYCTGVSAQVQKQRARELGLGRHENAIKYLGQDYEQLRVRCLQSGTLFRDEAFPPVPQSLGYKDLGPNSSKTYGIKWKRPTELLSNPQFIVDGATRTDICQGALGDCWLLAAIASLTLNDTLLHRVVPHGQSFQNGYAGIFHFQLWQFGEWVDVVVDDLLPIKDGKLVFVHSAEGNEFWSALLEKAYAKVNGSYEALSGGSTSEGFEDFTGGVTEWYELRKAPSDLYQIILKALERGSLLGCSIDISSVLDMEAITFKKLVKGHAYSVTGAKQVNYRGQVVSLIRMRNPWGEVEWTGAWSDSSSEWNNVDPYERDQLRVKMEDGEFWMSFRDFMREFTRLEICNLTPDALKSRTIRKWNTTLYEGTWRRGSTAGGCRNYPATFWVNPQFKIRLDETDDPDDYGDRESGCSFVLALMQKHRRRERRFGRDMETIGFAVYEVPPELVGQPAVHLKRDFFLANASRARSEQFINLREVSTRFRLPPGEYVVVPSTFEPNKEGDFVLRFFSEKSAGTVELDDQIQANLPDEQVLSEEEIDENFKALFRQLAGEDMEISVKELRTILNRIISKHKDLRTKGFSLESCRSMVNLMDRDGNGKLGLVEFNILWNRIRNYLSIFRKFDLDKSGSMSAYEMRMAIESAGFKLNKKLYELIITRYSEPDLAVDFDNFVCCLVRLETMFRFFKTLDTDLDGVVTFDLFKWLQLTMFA

[7] = Inhibition of human cathepsin 1 using QXL520/HiLyteFlour 488 as substrate preincubated for 60 mins and measured after 30 mins by fluorescence based assay
[8] = molecular target: Replicase polyprotein 1ab (Severe acute respiratory syndrome coronavirus 2) (UniProt P0DTD1); experiment: Inhibition of SARS-CoV-2 3CLpro using Dabcyl-KTSAVLQSGFRKM-Glu(Edans) as substrate at 100 uM preincubated for 1 hrs in presence of 2 mM GSH followed by substrate addition and measured after 30 mins by FRET assay relative to control; conditions: time 1.5 hrs
[9] = test system: Human coronavirus 229E; experiment: Antiviral activity against HCoV-229E expressing renilla luciferase reporter gene infected in human Huh-7 cells pre-infected […] for 1 hr followed by compound addition and measured after 6 hrs by luciferase based assay; type: functional, organism-based
[10] = molecular target: T1, Replicase polyprotein 1ab; experiment: Inhibition of SARS-CoV-2 3CLpro using Dabcyl-KTSAVLQSGFRKM-Glu(Edans) as substrate preincubated for 30 mins followed by substrate addition and measured after 30 mins by FRET assay
[11] = molecular target: T1, Replicase polyprotein 1ab; experiment: Inhibition of SARS-CoV-2 3CLpro using Dabcyl-KTSAVLQSGFRKM-Glu(Edans) as substrate preincubated for 60 mins in absence of GSH followed by substrate addition and measured after 30 mins by FRET assay; conditions: read-out: IC50
[12] = molecular target: T1, Replicase polyprotein 1ab; experiment: Inhibition of SARS-CoV-2 3CLpro using Dabcyl-KTSAVLQSGFRKM-Glu(Edans) as substrate preincubated for 60 mins in presence of GSH followed by substrate addition and measured after 30 mins by FRET assay; conditions: read-out: IC50
[13] = molecular target: Replicase polyprotein 1ab (Severe acute respiratory syndrome coronavirus 2) (UniProt P0DTD1); experiment: Binding affinity to 2H,15N-labelled SARS-CoV-2 3CLpro substrate binding pocket assessed as chemical shift perturbations at interface of domains I and II at 500 uM by 2D 1H,15N-HSQC NMR analysis

Chain of Replicase polyprotein 1ab (Human coronavirus 229E, UniProt P0C6X1) (P0C6X1 2966-3267 limits assumed): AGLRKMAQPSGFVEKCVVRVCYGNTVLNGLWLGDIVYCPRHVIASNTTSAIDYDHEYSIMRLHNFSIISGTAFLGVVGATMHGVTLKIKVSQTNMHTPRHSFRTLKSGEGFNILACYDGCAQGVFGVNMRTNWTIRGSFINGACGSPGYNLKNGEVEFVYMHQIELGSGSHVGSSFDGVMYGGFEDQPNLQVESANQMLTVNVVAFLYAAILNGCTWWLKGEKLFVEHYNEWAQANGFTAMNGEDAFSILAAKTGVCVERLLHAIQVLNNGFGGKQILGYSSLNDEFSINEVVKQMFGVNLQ

## CSc1nc2ccccc2n1C(=O)c1ccc(C)cc1
[1]
  ΔTm: 4.2 °C
[2]
  IC50: 390 nM
[3]
  IC50: 1600 nM
  pIC50: 5.81
[4]
  IC50: 1900 nM
[5]
  IC50: 5000 nM
  pIC50: 5.3
[6]
  IC50: > 100000 nM
[7]
  IC50: > 100000 nM

## COc1cc(C(=O)n2c(SC)nc3ccccc32)ccc1C
[2]
  IC50: 660 nM

## CSc1nc2ccc(F)cc2n1C(=O)c1ccc(C)cc1
[2]
  IC50: 200 nM

## CSc1nc2cc(F)ccc2n1C(=O)c1ccc(C)c(F)c1
[2]
  IC50: 100 nM

## CSc1nc2ccccc2n1C(=O)c1ccncc1
[2]
  pIC50: < 4
  IC50: > 100000 nM

## CSc1nc2cc(C)c(C)cc2n1C(=O)c1ccc(C)cc1
[8]
  inhibition: 68%

## CSc1nc2ccccc2n1C(=O)c1ccc(C)c(F)c1
[2]
  IC50: 90 nM
[3]
  IC50: 340 nM
  pIC50: 6.47
[4]
  IC50: 350 nM
[5]
  IC50: 1300 nM
  pIC50: 5.89
[6]
  IC50: > 100000 nM
[7]
  IC50: > 100000 nM
[9]
  EC50: 35600 nM

## Cc1ccc(C(=O)n2c(CC#N)nc3ccccc32)cc1
[8]
  inhibition: 68%

## Cc1ccc(C(=O)n2c(Cl)nc3ccccc32)cc1
[8]
  inhibition: 61%

## CSc1nc2ccccc2n1C(C)=O
[2]
  pIC50: < 4
  IC50: > 100000 nM

## CSc1nc2ccccc2n1C(=O)c1ccc(Cl)cc1
[2]
  IC50: 1100 nM

## CSc1nc2ccccc2n1C(=O)c1ccc(C)c(C)c1
[2]
  IC50: 1000 nM

## CSc1nc2ccccc2n1C(=O)Cc1ccccc1
[2]
  pIC50: < 4
  IC50: > 100000 nM

## C=CCSc1nc2ccccc2n1C(=O)c1ccc(C)cc1
[2]
  IC50: 5440 nM

## CSc1nc2ccccc2n1C(=O)c1ccc2c(c1)OCCO2
[2]
  IC50: 1000 nM

## CCc1ccc(C(=O)n2c(SC)nc3ccccc32)cc1
[2]
  IC50: 1800 nM

## Cc1ccc(C(=O)n2cnc3ccccc32)cc1
[2]
  IC50: 6700 nM and 6660 nM

## CSc1nc2cc(Cl)ccc2n1C(=O)c1ccc(C)cc1
[2]
  IC50: 550 nM

## Cc1ccc(C(=O)n2c(C)nc3ccccc32)cc1
[2]
  IC50: 3430 nM

## CSc1nc2cc3c(cc2n1C(=O)c1ccc(C)cc1)OCCO3
[10]
  IC50: 140 nM
[1]
  ΔTm: 1.47 °C
[11]
  IC50: 380 nM
[12]
  IC50: 390 nM
[13]
  Activity: Active
[2]
  IC50: 140 nM
[3]
  IC50: 1700 nM
  pIC50: 5.77
[4]
  IC50: 190 nM
[5]
  IC50: 2500 nM
  pIC50: 5.6
[6]
  IC50: > 100000 nM
[7]
  IC50: > 100000 nM
[9]
  EC50: 7300 nM

## CSc1nc2ccccc2n1C(=O)c1ccc(F)cc1
[2]
  IC50: 3800 nM

## CSc1nc2ccccc2n1C(=O)c1cccc(C(F)(F)F)c1
[2]
  IC50: 33700 nM

## CSc1nc2cc3c(cc2n1C(=O)c1ccc(C)c(F)c1)OCCO3
[2]
  IC50: 270 nM

## CSc1nc2cc(F)ccc2n1C(=O)c1ccc(C)cc1
[2]
  IC50: 270 nM

## CSc1nc2ccccc2n1C(=O)c1ccccc1
[2]
  IC50: 2500 nM

## CSc1nc2cc(C#N)ccc2n1C(=O)c1ccc(C)c(F)c1
[2]
  IC50: 890 nM

## CSc1nc2ccccc2n1C(=O)c1ccc(C)c(Cl)c1
[2]
  IC50: 150 nM

## CCc1nc2ccccc2n1C(=O)c1ccc(C)cc1
[2]
  IC50: 6550 nM

## COc1ccc(C(=O)n2c(SC)nc3ccccc32)cc1
[2]
  IC50: 3000 nM

## Cc1ccc(C(=O)n2ccc3ccccc32)cc1
[2]
  pIC50: < 4
  IC50: > 100000 nM
